These are literature values, as cited in patent US6676928B2, “Perfluoroalkyl-containing complexes with polar radicals, process for their production and their use” (Schering Aktiengesellschaft, priority 2000, dated 2004).

The conditions of data set [1]: in vivo; cited from earlier work.
For data set [2] the following is noted: 39° C., 0.47 T; cited from earlier work.
For data set [3] the following is noted: 39° C., 0.47 T; cited from earlier work. This is another data set of the same source.
The test system of data set [4] is infarcted tissue (kidney, myocardium). Particulars: two cases: infarction-kidney and myocardium; cited from earlier work.

“And” between values parts separate entries of the source, which are not always exact repeats. Equal entries are not always repeated.

For `O=S(=O)([O-])c1ccc(-c2c3nc(c(-c4ccc(S(=O)(=O)[O-])cc4)c4ccc([nH]4)c(-c4ccc(S(=O)(=O)[O-])cc4)c4nc(c(-c5ccc(S(=O)(=O)[O-])cc5)c5ccc2[nH]5)C=C4)C=C3)cc1.[Mn+4]` [Mn-TPPS, manganese-5,10,15,20-tetrakis(4-sulfonatophenyl)-porphyrin], in data set [1], the LD50 result is reported as “approximately 0.5 mmol/kg”.

Regarding `CNC(=O)CN(CCN(CCN(CC(=O)[O-])CC(=O)NC)CC(=O)[O-])CC(=O)[O-].[Gd+3]` [OMNISCAN ®], the “T^1 - Relaxivity in Plasma” value in data set [2] was 4.4 mmol⁻¹ s⁻¹. The “T^1 - Relaxivity in Water” value in data set [3] was 3.8 mmol⁻¹ s⁻¹.

Turning to `CC(O)CN1CCN(CC(=O)[O-])CCN(CC(=O)[O-])CCN(CC(=O)[O-])CC1.[Gd+3]` (stereo not drawn) [PRO HANCE ®], the “T^1 - Relaxivity in Plasma” value in data set [2] was 4.9 mmol⁻¹ s⁻¹. For the same compound, in data set [3], the “T^1 - Relaxivity in Water” value was 3.7 mmol⁻¹ s⁻¹.

In the case of gadolinium-mesoporphyrin [Gd-MP], the “ratio of the signal intensities in MRI, infarcted in comparison to healthy tissue” value in data set [4] is 2.10 and 2.19.
